Test results: PMC8852625, “A Computer-Aided Approach for the Discovery of D-Peptides as Inhibitors of SARS-CoV-2 Main Protease” (Frontiers in Molecular Biosciences, 2022)
Read-outs that look alike come from different tables or passages of the source.

Columns and labels:
3CL^pro = settings: in vivo; cited from earlier work

## CC(C)(C)[C@H](NC(=O)C(F)(F)F)C(=O)N1C[C@H]2[C@@H]([C@H]1C(=O)N[C@H](C#N)C[C@@H]1CCNC1=O)C2(C)C [PF-07321332]
3CL^pro
  phase I clinical trial result: promising results

## ACE-HIE-ALA-PRO-TRP-NME [4P3]
SARS-CoV-2 3CL^pro; pH 7.2
  inhibition (loss) of 3CL^pro activity: more than 80%
  inhibition of 3CL^pro (in words): most potent
  residual activity of 3CL^pro: below 20%

## ACE-HIE-HIE-PRO-TYR-NME [4P4]
SARS-CoV-2 3CL^pro; 20 μM peptide, 500 nM 3CL^pro, 30 min pre-incubation, 50 µM DABCYL-KTSAVLQ↓SGFRKME-EDANS, 30 min, 37°C, 20 mM Tris pH 7.2, 200 mM NaCl, 1 mM EDTA, 1 mM TCEP, fluorescence 360/460 nm, mean, n = 3
  inhibition (loss) of 3CL^pro activity: more than 80%
SARS-CoV-2 3CL^pro; 20 μM peptide, 500 nM 3CL^pro, 30 min pre-incubation, 50 µM fluorogenic substrate, 37°C, pH 7.2, mean, n = 3
  residual activity of 3CL^pro: below 20%
